From patent US20240158392A1 (Janssen Biotech, Inc., priority 2021, published 2024)

How the values were obtained:
SIK2 [1] = molecular target: T1, SIK2 (Homo sapiens, UniProt Q9H0K1); assay: SIK2 Enzymatic Assay High Version 2 (High ATP); format: biochemical
Outline: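 At room temperature, enzyme (6 nM, 2× final) was preincubated with compound for 30 min, then 6 mM ATP and 400 μM HDAC5tide (both 2× final) were added for 2 h. ADP formed was measured by ADP-Glo Max (2 h reagent, 1 h detection) using luminescence.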

SIK2 [2] = molecular target: T1, SIK2; assay: SIK2 Enzymatic Assay Version 1 (ADP Glo); format: biochemical; conditions: enzyme 0.6 nM, 160 μM ATP and 140 μM HDAC5tide (each 2× final concentration); 30 minutes pre-incubation, 4 hours; ADPGlo luminescence; read-out: SIK2 ADP Glo IC50 (μM) (Test Example 1)
Description: All steps were performed at room temperature. Compounds were pre-plated onto an assay plate using an Echo acoustic dispenser (Labcyte, E550 or E555) at 20 nL per well. Enzyme prepared in Assay Buffer at 0.6 nM (2× final concentration) was added at 2 μL per well using the Multidrop Combi (Thermo Fisher—used for all additions in this assay) to the assay plate, spun for 1 min at 800-850 rpm (Allegra 6KR Beckman Coulter centrifuge), and incubated with compound for 30 minutes.
One column of wells was dedicated to a no-peptide negative control (containing only ATP). ADPGlo Reagent (prepared and aliquoted as per manufacturer instructions) was then added at 2 μL per well, spun and incubated for 40 min. ADPGlo Detection (prepared and aliquoted as per manufacturer instructions) was added at 2 μL per well to the assay plate, which was spun and incubated for at least 30 min. The plate was then read on the Pherastar (BMG Labtech) using a luminescence read. Gain was set by the 0.1 mM concentration of ADP wells in the ADP/ATP standard curve plate generated as per manufacturer instructions.

T1 sequence (Q9H0K1 whole entry, species assumed): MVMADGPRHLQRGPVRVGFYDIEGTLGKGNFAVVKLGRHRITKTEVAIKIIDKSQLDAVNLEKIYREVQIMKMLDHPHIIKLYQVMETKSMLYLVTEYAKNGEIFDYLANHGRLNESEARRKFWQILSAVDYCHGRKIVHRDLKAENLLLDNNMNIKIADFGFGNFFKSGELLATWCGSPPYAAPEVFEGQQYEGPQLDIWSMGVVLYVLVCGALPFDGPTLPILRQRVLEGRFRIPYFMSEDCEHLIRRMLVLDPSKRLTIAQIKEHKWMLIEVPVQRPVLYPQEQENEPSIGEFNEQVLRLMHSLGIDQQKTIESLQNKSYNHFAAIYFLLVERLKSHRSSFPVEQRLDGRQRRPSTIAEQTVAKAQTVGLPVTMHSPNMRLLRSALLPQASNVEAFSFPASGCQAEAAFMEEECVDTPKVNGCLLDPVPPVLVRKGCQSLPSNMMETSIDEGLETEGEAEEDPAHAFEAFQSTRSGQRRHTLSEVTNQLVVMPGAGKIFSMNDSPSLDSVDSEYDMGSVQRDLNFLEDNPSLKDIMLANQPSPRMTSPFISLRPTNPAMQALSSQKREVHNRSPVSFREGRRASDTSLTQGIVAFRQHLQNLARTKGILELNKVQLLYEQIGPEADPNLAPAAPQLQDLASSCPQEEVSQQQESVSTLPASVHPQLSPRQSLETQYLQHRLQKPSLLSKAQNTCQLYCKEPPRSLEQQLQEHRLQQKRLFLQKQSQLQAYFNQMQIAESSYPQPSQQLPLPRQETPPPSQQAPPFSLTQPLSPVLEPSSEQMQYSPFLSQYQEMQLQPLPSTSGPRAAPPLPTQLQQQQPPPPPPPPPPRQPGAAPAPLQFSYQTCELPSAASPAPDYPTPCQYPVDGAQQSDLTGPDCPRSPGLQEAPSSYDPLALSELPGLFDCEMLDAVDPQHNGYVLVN

Row | SMILES | IC50 (SIK2 [1]) [nM] | IC50 (SIK2 [2]) [µM]
1 | N#Cc1cc(-c2ccn3nc(NC(=O)C4CC4)cc3c2)c(O[C@H]2CCNC2)cn1 [Example 6, (S)—N-(5-(2-cyano-5-(pyrrolidin-3-yloxy)pyridin-4-yl)pyrazolo[1,5-a]pyridin-2-yl)cyclopropanecarboxamide] | 11.2 | 0.00149
2 | CN1CC[C@@H](COc2cnc(C#N)cc2-c2ccn3nc(Nc4ccncc4)cc3c2)C1 [Example 105, 5-[[(3R)-1-methylpyrrolidin-3-yl]methoxy]-4-[2-(4-pyridylamino)pyrazolo[1,5-a]pyridin-5-yl]pyridine-2-carbonitrile] | 203 | 0.00951
3 | Cc1cc(-c2ccn3nc(Nc4ccccn4)cc3c2)c(OC[C@H]2CNCCO2)cn1 [Example 428, 5-[2-methyl-5-[[(2R)-morpholin-2-yl]methoxy]-4-pyridyl]-N-(2-pyridyl)pyrazolo[1,5-a]pyridin-2-amine] | 20.8 | 0.00201
4 | N#Cc1cc(-c2ccn3nc(NC(=O)C4CC4)cc3c2)c(OC[C@H]2CC[C@H](N)CC2)cn1 [Example 586, N-(5-(5-(((1r,4r)-4-aminocyclohexyl)methoxy)-2-cyanopyridin-4-yl)pyrazolo[1,5-a]pyridin-2-yl)cyclopropanecarboxamide] | 8.63 | 0.00095
5 | N#Cc1cc(-c2ccn3nc(NC(=O)C4CC4)cc3c2)c(OC[C@@H]2CC[C@H](N)C2)cn1 [Example 20, N-[5-[5-[[(1R,3S)-3-aminocyclopentyl]methoxy]-2-cyano-4-pyridyl]pyrazolo[1,5-a]pyridin-2-yl]cyclopropanecarboxamide] | 10.2 | 0.00122
6 | Cn1ccc(Nc2cc3cc(-c4cc(C#N)ccc4OC[C@H]4CNCCO4)ccn3n2)n1 [Example 566, 3-[2-[(1-methylpyrazol-3-yl)amino]pyrazolo[1,5-a]pyridin-5-yl]-4-[[(2R)-morpholin-2-yl]methoxy]benzonitrile] | 101 | 0.00389
7 | N#Cc1cc(-c2ccn3nc(NC(=O)C4CC4)cc3c2)c(OC[C@@H]2CCCNC2)cn1 [Example 585, N-[5-[2-cyano-5-[[(3R)-3-piperidyl]methoxy]-4-pyridyl]pyrazolo[1,5-a]pyridin-2-yl]cyclopropanecarboxamide] | 16.9 | 0.00148
8 | COc1cnccc1-c1ccn2nc(NC(=O)C3CC3)cc2c1 [Example 749, N-[5-(3-methoxy-4-pyridyl)pyrazolo[1,5-a]pyridin-2-yl]cyclopropanecarboxamide] | 821 | 0.0179
9 | N#Cc1cc(-c2ccn3nc(NC(=O)C4CC4)cc3c2)c(O[C@@H]2CCN(Cc3ccccn3)C2)cn1 [Example 112, (R)—N-[5-[2-cyano-5-[(3R)-1-(2-pyridylmethyl)pyrrolidin-3-yl]oxy-4-pyridyl]pyrazolo[1,5-a]pyridin-2-yl]cyclopropanecarboxamide] | 81.5 | 0.00356
10 | Cc1cc(-c2ccn3nc(Nc4cc(C)nc(C)n4)cc3c2)c(OC[C@@H]2CNCCO2)cn1 [Example 432, N-(2,6-dimethylpyrimidin-4-yl)-5-[2-methyl-5-[[(2S)-morpholin-2-yl]methoxy]-4-pyridyl]pyrazolo[1,5-a]pyridin-2-amine] | 1.71 | 0.000345
11 | Cc1cc(-c2ccn3nc(NC(=O)C4CC4)cc3c2)c(O[C@H]2CC[C@@H](O)C2)cn1 (single isomer, unassigned) [Example 179, cis-N-(5-(5-(((1*S,3*R)-3-hydroxycyclopentyl)oxy)-2-methylpyridin-4-yl)pyrazolo[1,5-a]pyridin-2-yl)cyclopropanecarboxamide] | 52.1 | 0.00308
12 | N#Cc1cc(-c2ccn3nc(NC(=O)C4CC4)cc3c2)c(OC2C[C@H]3COC[C@@H](C2)N3)cn1 (stereo partly drawn) [Example 92, (3-endo)-N-[5-[2-cyano-5-[[(1R,5S)-3-oxa-9-azabicyclo[3.3.1]nonan-7-yl]oxy]-4-pyridyl]pyrazolo[1,5-a]pyridin-2-yl]cyclopropanecarboxamide] | < 0.838 | 0.00013
13 | N#Cc1cc(-c2ccn3nc(NC(=O)C4CC4)cc3c2)c(O[C@@H]2CNC[C@H](C(F)(F)F)C2)cn1 [Example 95, N-[5-[2-cyano-5-[[(3S,5R)-5-(trifluoromethyl)-3-piperidyl]oxy]-4-pyridyl]pyrazolo[1,5-a]pyridin-2-yl]cyclopropanecarboxamide] | 2.58 | 0.000435
14 | CCOC(=O)CN[C@H]1C[C@@H](COc2cnc(C#N)cc2-c2ccn3nc(NC(=O)C4CC4)cc3c2)C1 [Example 598, ethyl 2-[[3-[[6-cyano-4-[2-(cyclopropanecarbonylamino)pyrazolo[1,5-a]pyridin-5-yl]-3-pyridyl]oxymethyl]cyclobutyl]amino]acetate] | 53.5 | 0.0041
15 | N#Cc1cc(-c2ccn3nc(NC(=O)C4CC4)cc3c2)c(OC[C@H]2C[C@H](N)C2)cn1 [Example 591, N-(5-(5-(((1r,3r)-3-aminocyclobutyl)methoxy)-2-cyanopyridin-4-yl)pyrazolo[1,5-a]pyridin-2-yl)cyclopropanecarboxamide] | 7.9 | 0.000647
16 | N#Cc1ccc(OC[C@@H]2CNCCO2)c(-c2ccn3nc(NC(=O)C4CC4)cc3c2)c1 [Example 103, N-[5-[5-cyano-2-[[(2S)-morpholin-2-yl]methoxy]phenyl]pyrazolo[1,5-a]pyridin-2-yl]cyclopropanecarboxamide] | 34.5 | 0.00362
17 | Cc1cc(-c2ccn3nc(NC(=O)C4CC4)cc3c2)c(OC[C@H](N)C(C)(C)C)cn1 [Example 150, N-[5-[5-[(2R)-2-amino-3,3-dimethyl-butoxy]-2-methyl-4-pyridyl]pyrazolo[1,5-a]pyridin-2-yl]cyclopropanecarboxamide] | 322 | 0.00644
18 | N#Cc1cc(-c2ccn3nc(NC(=O)C4CC4)cc3c2)c(OCc2ccccn2)cn1 [Example 48, N-(5-(2-Cyano-5-(pyridin-2-ylmethoxy)pyridin-4-yl)pyrazolo[1,5-a]pyridin-2-yl)cyclopropanecarboxamide] | 118 | 0.0109
19 | C[C@@H](O)COc1cnc(C#N)cc1-c1ccn2nc(NC(=O)C3CC3)cc2c1 [Example 94, N-[5-[2-cyano-5-[(2R)-2-hydroxypropoxy]-4-pyridyl]pyrazolo[1,5-a]pyridin-2-yl]cyclopropanecarboxamide] | 167 | 0.00847
20 | Cc1cc(-c2ccn3nc(NC(=O)C4CC4)cc3c2)c(OC[C@H]2CNCCO2)cn1 [Example 166, N-[5-[2-methyl-5-[[(2R)-morpholin-2-yl]methoxy]-4-pyridyl]pyrazolo[1,5-a]pyridin-2-yl]cyclopropanecarboxamide] | 15.9 | 0.00101
21 | Cc1cc(-c2ccn3nc(NC(=O)C4CC4)cc3c2)c(O[C@H]2CC[C@H](O)C2)cn1 (stereo in doubt) [Example 183, trans-N-(5-(5-(((1*S,3*S)-3-hydroxycyclopentyl)oxy)-2-methylpyridin-4-yl)pyrazolo[1,5-a]pyridin-2-yl)cyclopropanecarboxamide] | 34.9 | 0.00201
22 | Cc1cc(-c2ccn3nc(Nc4ccn(C)n4)cc3c2)c(O[C@H]2CC[C@H](O)CC2)cn1 [Example 181, trans-4-[[6-methyl-4-[2-[(1-methylpyrazol-3-yl)amino]pyrazolo[1,5-a]pyridin-5-yl]-3-pyridyl]oxy]cyclohexanol] | 32 | 0.00236
23 | CC#Cc1cc(-c2ccn3nc(NC(=O)C4CC4)cc3c2)c(OC2CN(C)C2)cn1 [Example 442, N-[5-[5-(1-methylazetidin-3-yl)oxy-2-prop-1-ynyl-4-pyridyl]pyrazolo[1,5-a]pyridin-2-yl]cyclopropanecarboxamide] | 3.75 | 0.000323
24 | N#Cc1cc(-c2ccn3nc(NC(=O)C4CC4)cc3c2)c(O[C@H]2CC[C@@H](O)CC2)cn1 [Example 86, N-(5-(2-cyano-5-(((1s,4s)-4-hydroxycyclohexyl)oxy)pyridin-4-yl)pyrazolo[1,5-a]pyridin-2-yl)cyclopropanecarboxamide] | 2.76 | 0.000204
25 | N#Cc1cc(-c2ccn3nc(NC(=O)C4CC4)cc3c2)c(O[C@H]2CCN(Cc3ccccn3)C2)cn1 [Example 109, (S)—N-[5-[2-cyano-5-[(3S)-1-(2-pyridylmethyl)pyrrolidin-3-yl]oxy-4-pyridyl]pyrazolo[1,5-a]pyridin-2-yl]cyclopropanecarboxamide] | 116 | 0.00422
26 | CN1[C@@H]2COC[C@H]1CC(Nc1cnc(C#N)cc1-c1ccn3nc(NC(=O)C4CC4)cc3c1)C2 (stereo partly drawn) [Example 565, N-[5-[2-cyano-5-[[(1R,5S)-9-methyl-3-oxa-9-azabicyclo[3.3.1]nonan-7-yl]amino]-4-pyridyl]pyrazolo[1,5-a]pyridin-2-yl]cyclopropanecarboxamide] | 88.2 | 0.00384
27 | Cn1ccc(N[C@H]2C[C@@H](COc3cnc(C#N)cc3-c3ccn4nc(NC(=O)C5CC5)cc4c3)C2)n1 [Example 177, cis-N-[5-[2-cyano-5-[[3-[(1-methylpyrazol-3-yl)amino]cyclobutyl]methoxy]-4-pyridyl]pyrazolo[1,5-a]pyridin-2-yl]cyclopropanecarboxamide] | 29.3 | 0.00137
